Measured values published in patent publication US20160083400A1, “TRICYCLIC GUANIDINE DERIVATIVE” (Sunovion Pharmaceuticals Inc., priority 2014, published 2016).

What follows are molecules tested against PDE1B (Homo sapiens, UniProt Q01064) (assay: In vitro HTRF PDE1 inhibition assay (PDE1B)). Details: 100 nM cyclic GMP, calmodulin, 45 minutes at 37° C.
Format: biochemical

Sequence of PDE1B (Q01064 whole entry): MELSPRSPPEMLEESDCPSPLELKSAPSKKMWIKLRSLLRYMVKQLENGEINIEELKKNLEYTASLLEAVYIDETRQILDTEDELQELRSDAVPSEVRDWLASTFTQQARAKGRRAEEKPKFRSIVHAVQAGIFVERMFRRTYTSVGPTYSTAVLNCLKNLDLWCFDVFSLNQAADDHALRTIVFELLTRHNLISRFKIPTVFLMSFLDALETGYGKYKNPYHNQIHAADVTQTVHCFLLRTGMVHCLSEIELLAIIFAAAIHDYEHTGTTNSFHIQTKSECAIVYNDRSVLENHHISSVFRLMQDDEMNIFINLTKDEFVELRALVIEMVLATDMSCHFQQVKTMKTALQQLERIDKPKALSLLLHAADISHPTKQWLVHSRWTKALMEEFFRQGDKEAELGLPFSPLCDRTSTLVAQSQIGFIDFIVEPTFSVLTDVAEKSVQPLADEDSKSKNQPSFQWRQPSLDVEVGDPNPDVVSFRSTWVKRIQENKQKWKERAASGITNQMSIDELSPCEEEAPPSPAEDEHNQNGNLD

IC50	Compound
< 1 µM	N#Cc1ccc(C2CCn3c(nn4c(C5CCOCC5)ncc4c3=O)N2)cc1 (centres unmarked) [Example 93]
< 1 µM	Cc1cccc([C@H]2CCn3c(nn4c(C5CCOCC5)ncc4c3=O)N2)c1 [Example 264, (2R)-2-(3-Methylphenyl)-9-(tetrahydro-2H-pyran-4-yl)-1,2,3,4-tetrahydro-6H-imidazo[5,1-f]pyrimido[2,1-c][1,2,4]triazin-6-one]
< 1 µM	CC(C)c1ncc2c(=O)n3c(nn12)NC(c1ccc(C#N)cn1)CC3 (centres unmarked) [Example 92]
< 1 µM	COc1ccc([C@H]2CN3C(=O)c4cnc(C5(C(F)(F)F)CC5)n4NC3=N2)cc1 [Example 256, (2S)-2-(4-Methoxyphenyl)-8-[1-(trifluoromethyl)cyclopropyl]-2,10-dihydro-3H,5H-diimidazo[2,1-c:5′,1′-f][1,2,4]triazin-5-one]
< 1 µM	CC(C)n1ncc2c(=O)n3c(nc21)NC(c1ccccc1)CC3 (centres unmarked) [Example 32]
< 1 µM	COC(C)(C)c1ncc2c(=O)n3c(nn12)N[C@@H](c1ccc(Cl)cc1)CC3 [Example 240]
1 to 10 µM	CC(C)c1ncc2c(=O)n3c(nn12)N[C@H](c1ccc(Cl)cc1)CC3 [Example 49]
< 1 µM	O=c1c2cnc(C3CCOCC3)n2nc2n1CCC(c1cccc(Cl)c1)N2 (centres unmarked) [Example 56]
< 1 µM	COc1cccc(C2CCn3c(nn4c(C(C)C)ncc4c3=O)N2)c1 (centres unmarked) [Example 47]
1 to 10 µM	O=c1c2cnc(C3CCOCC3)n2nc2n1CCC1(CCCc3ccccc31)N2 (centres unmarked) [Example 180]
1 to 10 µM	C=Cc1ncc2c(=O)n3c(nn12)N[C@@H](c1ccc(Cl)cc1)CC3 [Example 248]
< 1 µM	CC(C)c1ncc2n1NC1=N[C@@H](c3ccc(Cl)cc3)CN1C2=O [Example 137, (2S)-2-(4-Chlorophenyl)-8-isopropyl-2,10-dihydro-3H,5H-diimidazo[2,1-c:5′,1′-f][1,2,4]triazin-5-one]
1 to 10 µM	Cc1ccc(CC2CCn3c(nc4c(cnn4C(C)C)c3=O)N2)cn1 (centres unmarked) [Example 33]
< 1 µM	C[C@@H](O)c1ncc2c(=O)n3c(nn12)N[C@@H](c1ccc(Cl)cc1)CC3 [Example 250]
< 1 µM	O=c1c2cnc(CC3CC3)n2nc2n1CC[C@H](c1ccc(Cl)cc1)N2 [Example 247]
1 to 10 µM	O=c1c2cnn(C3CCOCC3)c2nc2n1C[C@@H](c1ccc(Cl)cc1)N2 [Example 147]
< 1 µM	COc1ccc([C@H]2CCn3c(nn4c(C(C)C)ncc4c3=O)N2)cc1 [Example 85]
< 1 µM	COc1ccc(CC2CCn3c(nn4c(C5CCOCC5)ncc4c3=O)N2)cc1 (centres unmarked) [Example 58]
< 1 µM	CC(C)(C)c1ncc2c(=O)n3c(nn12)NC(c1ccc(Cl)cc1)CC3 (centres unmarked) [Example 68]
< 1 µM	N#Cc1cccc(C2CCn3c(nn4c(C5CCOCC5)ncc4c3=O)N2)c1 (centres unmarked) [Example 94]
< 1 µM	COc1ccc(C2CCn3c(nn4c(C(C)C)ncc4c3=O)N2)cc1 (centres unmarked) [Example 54]
< 1 µM	N#Cc1ccc(C2Cn3c(nc4c(cnn4C4CCOCC4)c3=O)N2)cc1 (centres unmarked) [Example 86, 4-[4-Oxo-1-(tetrahydro-2H-pyran-4-yl)-4,6,7,8-tetrahydro-1H-imidazo[1,2-a]pyrazolo[3,4-d]pyrimidin-7-yl]benzonitrile]
10 to 100 µM	O=c1c2noc(C3CCCC3)c2nc2n1CC[C@H](c1ccc(Cl)cc1)N2 [Example 153]

IC50	Compound
< 1 µM	COc1cncc([C@H]2CCn3c(nn4c(C5CCCC5)ncc4c3=O)N2)c1 [Example 130]
< 1 µM	O=c1c2cnc(C3CCOCC3)n2nc2n1CC[C@H](c1ccc(Cl)cc1C(F)(F)F)N2 [Example 122]
< 1 µM	O=c1c2cnn(C3CCOCC3)c2nc2n1CCC(Cc1ccc(Cl)cc1)N2 (centres unmarked) [Example 17]
1 to 10 µM	O=c1c2cnn(C3CCCC3)c2nc2n1CCC(c1ccncc1)N2 (centres unmarked) [Example 3]
1 to 10 µM	O=c1c2cnc(C3CCNCC3)n2nc2n1CCC(c1ccc(Cl)cc1)N2 (centres unmarked) [Example 253, 2-(4-Chlorophenyl)-9-(4-piperidinyl)-1,2,3,4-tetrahydro-6H-imidazo[5,1-f]pyrimido[2,1-c][1,2,4]triazin-6-one]
< 1 µM	COc1ccc([C@@H]2CN3C(=O)c4cnc(C5(C(F)(F)F)CC5)n4NC3=N2)cc1 [Example 255, (2R)-2-(4-Methoxyphenyl)-8-[1-(trifluoromethyl)cyclopropyl]-2,10-dihydro-3H,5H-diimidazo[2,1-c:5′,1′-f][1,2,4]triazin-5-one]
< 1 µM	CC(C)n1ncc2c(=O)n3c(nc21)NCCC3 [Example 254, 1-Isopropyl-6,7,8,10-tetrahydropyrazolo[3,4-d]pyrimido[1,2-a]pyrimidin-4(1H)-one]
< 1 µM	CC(C)c1ncc2c(=O)n3c(nn12)NC(c1ccc(Cl)cn1)CC3 (centres unmarked) [Example 51]
< 1 µM	C=C(C)c1ncc2c(=O)n3c(nn12)N[C@@H](c1ccc(Cl)cc1)CC3 [Example 241]
1 to 10 µM	Cc1ccc(CC2CCn3c(nc4c(cnn4C4CCCC4)c3=O)N2)cn1 (centres unmarked) [Example 42]
< 1 µM	CC(C)c1ncc2n1NC1=N[C@H](c3ccc(Cl)cc3)CN1C2=O [Example 136, (2R)-2-(4-Chlorophenyl)-8-isopropyl-2,10-dihydro-3H,5H-diimidazo[2,1-c:5′,1′-f][1,2,4]triazin-5-one]
< 1 µM	O=c1c2cnn(C3CCOCC3)c2nc2n1CC(c1ccc(F)cc1)N2 (centres unmarked) [Example 76]
10 to 100 µM	CC(C)(C)n1ncc2c(=O)n3c(nc21)NC(c1ccc(Cl)cc1)CC3 (centres unmarked) [Example 45]
< 1 µM	Cc1cncc([C@@H]2CCn3c(nn4c(C5CCCC5)ncc4c3=O)N2)c1 [Example 133]
< 1 µM	O=c1c2cnn(C3CC3)c2nc2n1CCC(c1ccc(Cl)cc1)N2 (centres unmarked) [Example 15]
< 1 µM	COc1ccc([C@@H]2Cn3c(nn4c(C5CCOCC5)ncc4c3=O)N2)cc1 [Example 140]
1 to 10 µM	CC(=O)c1ncc2c(=O)n3c(nn12)N[C@@H](c1ccc(Cl)cc1)CC3 [Example 252, (2R)-9-Acetyl-2-(4-chlorophenyl)-1,2,3,4-tetrahydro-6H-imidazo[5,1-f]pyrimido[2,1-c][1,2,4]triazin-6-one]
< 1 µM	COc1ccc([C@H]2Cn3c(nc4c(cnn4C(C)C)c3=O)N2)cc1 [Example 146]
< 1 µM	COc1cc(C2CCn3c(nn4c(C(C)C)ncc4c3=O)N2)ccc1F (centres unmarked) [Example 48]
< 1 µM	N#Cc1ccc(C2CCn3c(nn4c(C5CCC5)ncc4c3=O)N2)cc1 (centres unmarked) [Example 95]
< 1 µM	O=c1c2cnn(CC(F)(F)F)c2nc2n1CCC(c1ccc(Cl)cc1)N2 (centres unmarked) [Example 38]
< 1 µM	COc1ccc(CC2CCn3c(nc4c(cnn4C4CCOCC4)c3=O)N2)cc1 (centres unmarked) [Example 16]
< 1 µM	Cc1ccc([C@@H]2CN3C(=O)c4cnc(C(C)C)n4NC3=N2)cc1 [Example 97, (2R)-8-Isopropyl-2-(4-methylphenyl)-2,10-dihydro-3H,5H-diimidazo[2,1-c:5′,1′-f][1,2,4]triazin-5-one]

IC50	Compound
< 1 µM	O=c1c2cnc(C3CCC3)n2nc2n1CCC(c1ccc(C(F)(F)F)cc1)N2 (centres unmarked) [Example 64]
< 1 µM	CCCc1ncc2c(=O)n3c(nn12)N[C@@H](c1ccc(Cl)cc1)CC3 [Example 167]
< 1 µM	Cc1cncc([C@H]2CCn3c(nn4c(C5CCCC5)ncc4c3=O)N2)c1 [Example 132]
< 1 µM	O=C1c2cnc([C@H]3CCOC3)n2NC2=N[C@@H](c3ccc(Cl)cc3)CN12 [Example 186, (2S)-2-(4-Chlorophenyl)-8-[(3R)-tetrahydro-3-furanyl]-2,10-dihydro-3H,5H-diimidazo[2,1-c:5′,1′-f][1,2,4]triazin-5-one]
1 to 10 µM	O=c1c2ccnc(C3CCOCC3)c2nc2n1CCC(c1ccc(Cl)cc1)N2 (centres unmarked) [Example 172]
< 1 µM	COc1ccc(CC2CCn3c(nc4c(cnn4C(C)C)c3=O)N2)cc1 (centres unmarked) [Example 13]
< 1 µM	CC(C)c1ncc2c(=O)n3c(nn12)NC(C1CCCCC1)CC3 (centres unmarked) [Example 53]
1 to 10 µM	C[C@H](O)c1ncc2c(=O)n3c(nn12)N[C@@H](c1ccc(Cl)cc1)CC3 [Example 249]
< 1 µM	O=c1c2cnc(C3CCOCC3)n2nc2n1CC[C@H](c1cccc(Cl)c1)N2 [Example 127]
< 1 µM	O=c1c2cnc(C3CCCC3)n2nc2n1CC[C@@H](c1ccc(Cl)cc1)N2 [Example 62]
< 1 µM	O=c1c2cnc(C3CCOCC3)n2nc2n1CC[C@@H](c1cccc(Cl)c1)N2 [Example 126]
1 to 10 µM	Cc1ncc(C2CCn3c(nc4c(cnn4C(C)C)c3=O)N2)cn1 (centres unmarked) [Example 25]
1 to 10 µM	CC(C)c1onc2c(=O)n3c(nc12)NC(c1cccc(Cl)c1)CC3 (centres unmarked) [Example 158]
< 1 µM	O=c1c2cnc(C3CCC3)n2nc2n1CCC(Cc1ccc(Cl)cc1)N2 (centres unmarked) [Example 66]
< 1 µM	COCc1ncc2c(=O)n3c(nn12)N[C@@H](c1ccc(Cl)cc1)CC3 [Example 244]
< 1 µM	O=c1c2cnc(C3CCOCC3)n2nc2n1CCC(Cc1ccc(Cl)cc1)N2 (centres unmarked) [Example 59]
1 to 10 µM	N#Cc1ccc(C2CCn3c(nc4c(C5CCCC5)onc4c3=O)N2)cc1 (centres unmarked) [Example 154]
< 1 µM	COc1cccc([C@H]2CCn3c(nn4c(C5CCOCC5)ncc4c3=O)N2)c1 [Example 128]
1 to 10 µM	CC(C)n1ncc2c(=O)n3c(nc21)N[C@H](c1ccc(Cl)cc1)CC3 [Example 28]
< 1 µM	COc1cncc([C@@H]2CCn3c(nn4c(C5CCCC5)ncc4c3=O)N2)c1 [Example 131]
1 to 10 µM	CC(C)c1onc2c(=O)n3c(nc12)NC(c1ccc(C#N)cc1)CC3 (centres unmarked) [Example 157]
< 1 µM	O=c1c2cnc(C3CCOCC3)n2nc2n1C[C@@H](c1ccc(Cl)cc1)N2 [Example 138]
< 1 µM	Cc1cccc([C@@H]2CCn3c(nn4c(C5CCOCC5)ncc4c3=O)N2)c1 [Example 263, (2S)-2-(3-Methylphenyl)-9-(tetrahydro-2H-pyran-4-yl)-1,2,3,4-tetrahydro-6H-imidazo[5,1-f]pyrimido[2,1-c][1,2,4]triazin-6-one]

Compound	IC50
O=c1c2cnc(C3CCOCC3)n2nc2n1CC(c1ccc(F)nc1)N2 (centres unmarked) [Example 184]	1 to 10 µM
O=c1c2cnc(C3CCOCC3)n2nc2n1CC(c1ccc(Cl)nc1)N2 (centres unmarked) [Example 183]	< 1 µM
